Patent US20130157959A1, “USE OF HADES AS TUMOR SUPPRESSOR TARGET” (KONKUK UNIVERSITY INDUSTRIAL COOPERATION CORP, priority 2010, published 2013)
Peptide text beside a SMILES is read from it. * marks the point of attachment. Cbz = O=C(OCc1ccccc1)*

Tests used:
Type in all cases: cell-based
p53 [1] = experiment: p53 accumulation in CPT-treated MCF7 cells (immunoblotting)
Description: In a prior research, as p53 is rapidly translocated to mitochondria upon camptothecin (CPT) treatment for its exonuclear function [Mihara et al., Molecular Cell 11, 577-590 (2003)]. We examined whether Hades would be able to weaken the exonuclear function of p53 upon CPT treatment. MCF7 cells were transfected with plasmids (1 μg) expressing GFP or GFP-Hades. At 24 h post-transfection, cells were treated with CPT (1 μM) for 6 h. Accumulation of p53 upon CPT treatment was attenuated by Hades expression (FIG. 5e, upper panel). MCF7 cells were transfected with expression plasmid for GFP or GFP-Hades RING MR. At 24 h after transfection, cells were treated with CPT [5 μM] for 6 h and their nuclear and cytoplasmic fractions were collected to measure the expression level of p53. […] Further, MCF7 cells were transfected with the expression plasmids for GFP or GFP-Hades MR. At 24 h after transfection, cells were treated with 1 μM CPT for 24 h. Cells were harvested, lysed and immunoprecipitated with anti-p53 antibody. […] Hades inhibits the interaction between p53 and Bcl-2 in CPT-treated cells. (FIG. 5f) In order to confirm the effect of Hades on CPT-induced apoptosis, MCF7 cells were transfected with plasmids expressing GFP or GFP-Hades. At 24 h post-transfection, cells were treated with CPT (1 μM) for 24 h.

p53 [2] = experiment: Bax-luc / Puma-luc luciferase reporter assay; settings: H1299, LMB 20 nM 4 h, FIG. 4b
Description: Aliquots of 5×10^4 cells were plated in 24-well plates. The following was added to each well: 500 ng of pGL plasmid containing the promoter p53 binding site for Bax or Puma, 100 ng of p53 plasmid, and 200 ng of Hades or Hades MT plasmid. At 48 h after transfection, cells were harvested and cell extracts were prepared by addition of 50 μl Passive lysis buffer (Promega). Luciferase activities were measured using a Biotek synergy HT microplate reader. The relative luciferase activities were normalized by mesuring β-galactosidase activities using Luminescent β-galactosidase detection kit II (Takara-Clontech).
Since E3 ligase activities necessary for p53 ubiquitination can also regulate p53 function [Dornan et al., Nature 429, 86-92 (2004); Leng et al., Cell 112, 779-791 (2003)], we explored the effect of Hades on p53-dependent growth suppression and apoptosis. First, we examined whether Hades affects p53-mediated transcriptional activation using a luciferase reporter assay (FIG. 4a). H1299 cells were cotransfected with expression plasmids for p53 and GFP, GFP-Hades, or GFP-Hades MT, together with Bax-luc or Puma-luc reporter plasmid. At 24 h after transfection, the relative luciferase activities were measured by luminometer. […] At 24 h after transfection, luciperase activation and p53 experssion were measured.

Crm1 = Crm1 (Homo sapiens, UniProt O14980); experiment: p53 level in Hades-transfected H1299 cells with leptomycin B; settings: H1299 transfected with p53 and GFP-Hades, FIG. 2i
Crm1, sequence (O14980 whole entry): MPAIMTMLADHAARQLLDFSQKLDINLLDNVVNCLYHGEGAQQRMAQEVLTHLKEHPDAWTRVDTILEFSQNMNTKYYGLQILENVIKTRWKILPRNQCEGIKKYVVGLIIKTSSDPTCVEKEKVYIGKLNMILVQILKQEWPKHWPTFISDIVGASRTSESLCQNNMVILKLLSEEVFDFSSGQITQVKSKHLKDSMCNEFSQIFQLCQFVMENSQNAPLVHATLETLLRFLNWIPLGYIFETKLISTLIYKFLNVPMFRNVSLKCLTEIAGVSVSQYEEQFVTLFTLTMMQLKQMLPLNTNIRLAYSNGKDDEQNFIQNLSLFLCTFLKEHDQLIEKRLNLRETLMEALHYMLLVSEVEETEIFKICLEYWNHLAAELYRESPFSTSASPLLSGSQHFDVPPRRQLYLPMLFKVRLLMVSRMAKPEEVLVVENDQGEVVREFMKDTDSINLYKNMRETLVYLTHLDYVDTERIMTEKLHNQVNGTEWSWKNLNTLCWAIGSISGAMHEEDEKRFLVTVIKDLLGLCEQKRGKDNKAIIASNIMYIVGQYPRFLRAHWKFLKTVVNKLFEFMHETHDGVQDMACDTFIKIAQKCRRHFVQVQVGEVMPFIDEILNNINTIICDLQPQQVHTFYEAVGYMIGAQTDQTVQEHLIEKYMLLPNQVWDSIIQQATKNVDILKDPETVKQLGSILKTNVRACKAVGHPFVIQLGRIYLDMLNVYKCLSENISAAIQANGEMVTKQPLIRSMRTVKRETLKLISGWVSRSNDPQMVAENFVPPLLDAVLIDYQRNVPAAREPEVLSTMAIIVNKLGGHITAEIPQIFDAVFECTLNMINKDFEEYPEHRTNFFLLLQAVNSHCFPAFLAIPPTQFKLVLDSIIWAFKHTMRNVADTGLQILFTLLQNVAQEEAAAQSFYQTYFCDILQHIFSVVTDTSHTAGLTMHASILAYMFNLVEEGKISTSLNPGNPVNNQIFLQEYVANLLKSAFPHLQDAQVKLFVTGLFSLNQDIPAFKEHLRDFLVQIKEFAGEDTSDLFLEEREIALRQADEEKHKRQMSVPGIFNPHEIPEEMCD
Description: Next, we monitored the localization of p53 after the knockdown of Hades. […] The levels of endogenous p53 were measured in fractionated extracts of stable MCF7 cells. […] And also, we used a p53 expression plasmid encoding a mutant p53 (C153Y) that is localized mainly to the cytoplasm but not in the nucleus [Nie et al., J Biol Chem. 282, 14616-14625 (2007)]. We performed immunoblotting assay of ectopically expressed wild-type or mutant p53(C135Y). […] At 24 h after transfection, ectopically expressed wild-type p53 and mutant p53 levels were measured by immunoblotting.

p53 [3] = experiment: p53 level in Hades-transfected H1299 cells with MG132; settings: H1299, 10 μM MG132 4 h, FIG. 2e
Description: To gain a more detailed insight into the function of Hades in p53 downregulation, we investigated the regulation of p53 stability by Hades. H1299 cells were transfected with each indicated plasmid for 24 h and untreated or treated with 10 μM MG132 for 4 h. The reduced level of p53 by Hades was recovered by treatment of MG132 (FIG. 2e). To generate of stable Hades-knockdown MCF7 cells using the shRNA, the cells were transfected with pSuper-Hades 1 or 2. After selection for 14 days in media containing G418 (500 μg/ml), hades mRNA levels were measured by RT-PCR and the levels of endogenous Hades and p53 proteins were measured by immunoblotting. […] Furthermore, Stable Hades-knockdown MCF7 cells using Hades shRNA were incubated with cycloheximide (CHX, 150 μg/ml). The half-life of p53 protein was greater in pSuper-Hades transfected cells (lower panel) than in control (upper panel) (FIG. 2g).

p53 [4] = experiment: In vivo p53 ubiquitination assay in H1299 cells; settings: H1299 cotransfected with p53 and GFP-Hades, MG132 10 μM 4 h, FIG. 3e
Description: For in vivo p53 ubiquitination assay, HCT116 p53^−/− or H1299 cells were transfected with GFP, GFP-Hades, or GFP-Hades RING MT. At 48 hr after transfection, cells were treated with 10 μM MG132 for 4 hr. The ubiquitinated lysates were analyzed by immunoprecipitation using anti-p53 antibody followed by immunoblotting using anti-Ubiquitin antibody. In vivo p53 ubiquitination analysis, HCT116 p53^−/− or H1299 cells were transformed with GFP, GFP-Hades or GFP-Hades RING MT for 48 hr. After the transformation, cells were incubated for 4 hr using 10 μM MG132. Then, cells were lysed using SDS-containing lysis buffer and heated for […]. […] The anti-p53 immunoprecipitate was analyzed by immunoblotting using anti-polyubiquitin antibody.
Since there are several E2 conjugating enzymes which participate in the ubiquitin-mediated degradation [Smalle et al., Annu Rev Plant Biol. 2004, 555-590 (2004)], we examined which E2 enzyme is responsible for the ubiquitination of p53 by Hades. […] After in vitro ubiquitination, samples were examined SDS-PAGE and detected using autoradiography. […] Moreover, in vitro translated ^35S-labeled p53 was incubated with GST, GST-Hades RP or GST-Mdm2 in the presence of ATP, His-tagged ubiquitin E1 and E2(UbcHSc). p53 ubiquitination was assessed by immunoblotting using anti-p53 antibody. […] The p53 ubiquitination was assessed by immunoblotting using anti-p53 antibody. […]

HCT116 p53+/+ cells = experiment: JC-1 mitochondrial membrane potential, HCT116 p53+/+; settings: 40 nM siRNA 24 h, then 1 μM CPT 24 h, FIG. 5j
Description: For the MTS assay, cells were incubated with CellTiter 96® AQueous Non-Radioactive Cell Proliferation Assay reagent (Promega, USA) for 1 h, and then the O.D. was measured at 490 nm. Apoptosis, DNA content, and mitochondrial membrane potential were determined by flow cytometry using annexin V-PE, propidium iodine, and JC-1 staining, as previous described [Shirangi et al., FASEB J. 16, 420-422 (2002)].
The present inventors investigated the negative role of Hades on p53-dependent apoptosis additionaly using FACS analysis. MCF7 cells were transfected with pSuper or pSuper-Hades, treated with 1 μM CPT for 24 h, and analyzed by FACS to measure the sub-GO fraction. As a result, CPT treatment was higher in Hades knockdown MCF7 cells than in control cells (FIG. 5i). Further, HCT116 p53+/+ and HCT116 p53−/− cells were transfected with 40 nM Hades siRNA or control siRNA. After incubation for 24 h, cells were further treated with 1 μM CPT for 24 h. Cells were harvested and stained with JC-1 for 30 min.

CC[C@@]1(O)C(=O)OCc2c1cc1n(c2=O)Cc2cc3ccccc3nc2-1 [CPT, Camptothecin]
expression level of p53 (p53 [1]; MCF7, 1 μM CPT 24 h, FIG. 5f): accumulation of p53 expression was observed | expression level of p53 in nuclear and cytoplasmic fractions (p53 [1]; MCF7, CPT 5 μM 6 h, FIG. 5e lower panel): accumulated in nucleus and cytoplasm

CCC(=C/[C@H](C)C/C=C/C(C)=C/[C@@H](C)C(=O)[C@@H](C)[C@H](O)[C@@H](C)C/C(C)=C/C(=O)O)/C=C/[C@@H]1OC(=O)C=C[C@@H]1C [LMB, Leptomycin B]
p53 transcriptional activity (relative luciferase activity) (p53 [2]): not reduced by Hades in the presence of LMB | level of p53 reduced by Hades (Crm1): restored the level of p53

CC(C)C[C@@H](C=O)NC(=O)[C@H](CC(C)C)NC(=O)[C@H](CC(C)C)NC(=O)OCc1ccccc1 [MG132] (Cbz-Leu-Leu-Leu-aldehyde)
level of p53 reduced by Hades (p53 [3]): recovered | polyubiquitinated p53 (p53 [4]): only detected in Hades-transfected cells treated with MG132

Hades siRNA: siRNAs for Hades from Ambion, GGGAUUUUUAUCUCGAGGC and CGUGUGUGUAGAGGACAAA; antisense SEQ ID NO: 4 and 5 (antisense 1 GCCUCGAGAUAAAAAUCCCTG; antisense 2 UUUGUCCUCUACACACACGTG; sense strands lack entries, further chemistry not given here)
loss of mitochondrial membrane potential (JC-1) (HCT116 p53+/+ cells): only detectable in HCT116 p53+/+ cells
